US12715849B2, “Herbicidal tetrazole compounds” (SYNGENTA CROP PROTECTION AG, priority 2020, dated 2026)

How the values were obtained:
Assay in all cases: Glasshouse herbicidal test, pre- and post-emergence (Table B1)
Format in all cases: in vivo
[1] = test system: Echinochloa crus-galli (ECHCG); details: 130 g/h, evaluated after 13 days; for percentage damage caused to the plant, POST Application ECHCG: post-emergence; for percentage damage caused to the plant, PRE Application ECHCG: pre-emergence
Procedure: (§1) Seeds of a variety of test species are sown in standard soil in pots (Lolium perenne (LOLPE), Amaranthus retoflexus (AMARE), Amaranthus palmeri (AMAPA), Ablution theophrasti (ABUTH), Setaria faberi (SETFA), Echinochloa crus-galli (ECHCG), Ipomoea hederacea (IPOHE)). After cultivation for one day (pre-emergence) or after 8 days cultivation (post-emergence) under controlled conditions in a glasshouse (at 24/16° C., day/night; 14 hours light; 65% humidity), the plants are sprayed with an aqueous spray solution derived from the formulation of the technical active ingredient in acetone/water (50:50) solution containing 0.5% Tween 20 (polyoxyethelyene sorbitan monolaurate, CAS RN 9005-64-5). Compounds are applied at 130 g/h unless otherwise indicated. The test plants are then grown in a glasshouse under controlled conditions in a glasshouse (at 24/16° C., day/night; 14 hours light; 65% humidity) and watered twice daily. After 13 days for pre and post-emergence, the test is evaluated for the percentage damage caused to the plant. The biological activities are shown in the following table on a five-point scale (5=80-100%; 4=60-79%; 3=40-59%; 2=20-39%; 1=0-19%).

[2] = test system: Amaranthus palmeri (AMAPA); details: 130 g/h, evaluated after 13 days; for percentage damage caused to the plant, POST Application AMAPA: post-emergence; for percentage damage caused to the plant, PRE Application AMAPA: pre-emergence
Procedure: as §1

[3] = test system: Ipomoea hederacea (IPOHE); details: 130 g/h, evaluated after 13 days; for percentage damage caused to the plant, POST Application IPOHE: post-emergence; for percentage damage caused to the plant, PRE Application IPOHE: pre-emergence
Procedure: as §1

[4] = test system: Amaranthus retoflexus (AMARE); details: 130 g/h, evaluated after 13 days; for percentage damage caused to the plant, POST Application AMARE: post-emergence; for percentage damage caused to the plant, PRE Application AMARE: pre-emergence
Procedure: as §1

[5] = test system: Setaria faberi (SETFA); details: 130 g/h, evaluated after 13 days; for percentage damage caused to the plant, POST Application SETFA: post-emergence; for percentage damage caused to the plant, PRE Application SETFA: pre-emergence
Procedure: as §1

Row | Structure (SMILES) | percentage damage caused to the plant, POST Application ECHCG [1] | percentage damage caused to the plant, PRE Application ECHCG [1] | percentage damage caused to the plant, POST Application AMAPA [2] | percentage damage caused to the plant, PRE Application AMAPA [2] | percentage damage caused to the plant, POST Application IPOHE [3] | percentage damage caused to the plant, PRE Application IPOHE [3] | percentage damage caused to the plant, POST Application AMARE [4] | percentage damage caused to the plant, PRE Application AMARE [4] | percentage damage caused to the plant, POST Application SETFA [5] | percentage damage caused to the plant, PRE Application SETFA [5]
1 | Cn1nnnc1NC(=O)c1ccc(OC(F)(F)F)c(NS(=O)(=O)CC2CC2)c1Cl [Compound 1.056] | 5 (5=80-100%) | 5 (5=80-100%) | 5 (5=80-100%) | 5 (5=80-100%) | 5 (5=80-100%) | 5 (5=80-100%) | 5 (5=80-100%) | 5 (5=80-100%) | 5 (5=80-100%) | 5 (5=80-100%)
2 | CC(C)S(=O)(=O)Nc1c(OC(F)(F)F)ccc(C(=O)Nc2nnnn2C)c1Cl [Compound 1.076] |  | 5 (5=80-100%) | 5 (5=80-100%) | 5 (5=80-100%) | 4 (4=60-79%) | 3 (3=40-59%) | 5 (5=80-100%) | 5 (5=80-100%) | 5 (5=80-100%) | 5 (5=80-100%)
3 | CCS(=O)(=O)Nc1c(OC(F)(F)C(F)F)ccc(C(=O)Nc2nnnn2C)c1Cl [Compound 1.086] | 5 (5=80-100%) | 5 (5=80-100%) | 5 (5=80-100%) | 5 (5=80-100%) | 5 (5=80-100%) | 2 (2=20-39%) | 5 (5=80-100%) | 5 (5=80-100%) | 5 (5=80-100%) | 4 (4=60-79%)
4 | CCN(c1c(OC(F)(F)F)ccc(C(=O)Nc2nnnn2C)c1Cl)S(C)(=O)=O [Compound 1.079] |  | 5 (5=80-100%) | 5 (5=80-100%) | 5 (5=80-100%) | 4 (4=60-79%) | 4 (4=60-79%) | 5 (5=80-100%) | 5 (5=80-100%) | 5 (5=80-100%) | 5 (5=80-100%)
5 | CCS(=O)(=O)N(C)c1c(OC(F)F)ccc(C(=O)Nc2nnnn2C)c1Cl [Compound 1.087] | 5 (5=80-100%) | 5 (5=80-100%) | 5 (5=80-100%) | 5 (5=80-100%) | 4 (4=60-79%) | 5 (5=80-100%) | 5 (5=80-100%) | 5 (5=80-100%) | 5 (5=80-100%) | 5 (5=80-100%)
6 | CC(C)CS(=O)(=O)Nc1c(OC(F)F)ccc(C(=O)Nc2nnnn2C)c1Cl [Compound 1.070] | 4 (4=60-79%) | 3 (3=40-59%) | 5 (5=80-100%) | 4 (4=60-79%) | 4 (4=60-79%) | 2 (2=20-39%) | 5 (5=80-100%) | 4 (4=60-79%) | 4 (4=60-79%) | 3 (3=40-59%)
7 | COCCS(=O)(=O)Nc1c(OC(F)F)ccc(C(=O)Nc2nnnn2C)c1Cl [Compound 1.014] | 4 (4=60-79%) | 1 (1=0-19%) | 5 (5=80-100%) | 5 (5=80-100%) | 3 (3=40-59%) | 1 (1=0-19%) | 5 (5=80-100%) | 3 (3=40-59%) | 4 (4=60-79%) | 1 (1=0-19%)
8 | CN(c1c(OC(F)F)ccc(C(=O)Nc2nnnn2C)c1Cl)S(C)(=O)=O [Compound 1.071] | 5 (5=80-100%) | 5 (5=80-100%) | 5 (5=80-100%) | 5 (5=80-100%) | 4 (4=60-79%) | 3 (3=40-59%) | 5 (5=80-100%) | 5 (5=80-100%) | 5 (5=80-100%) | 5 (5=80-100%)
9 | CN(c1c(OC(F)(F)F)ccc(C(=O)Nc2nnnn2C)c1Cl)S(C)(=O)=O [Compound 1.077] |  | 5 (5=80-100%) | 5 (5=80-100%) | 5 (5=80-100%) | 4 (4=60-79%) | 4 (4=60-79%) | 5 (5=80-100%) | 5 (5=80-100%) | 5 (5=80-100%) | 5 (5=80-100%)
